Results from PubChem BioAssay AID2060498 (Molecular Pharmacology Branch, DTP, NCI, 2025).
Values joined by “and” are separate entries in the source; they are usually repeats but may differ in a detail not shown here. Equal entries are not always repeated. Values belong to the compound of their own block, whether it stands above or below them.

System: 171881-019-R-J1-PDC tumor spheroids, viability
Assay: Anticancer human tumor 171881-019-R-J1-PDC patient-derived invasive breast carcinoma cell line growth inhibition [GQUAD]
Details: spheroids with HUVEC and MSC; for viability, T/C: stronger effect = lower value
Excerpt: DNA G-quadruplex Stabilizer Agents in Combinations in Complex Spheroids
A high-throughput screen of multi-cell type tumor spheroids was designed to identify active combinations of DNA G-quadruplex stabilizer agents and targeted small molecules. Complex spheroids include a stromal component modeled by human endothelial cells (HUVEC) and fibroblasts modeled by human mesenchymal stem cells (MSCs). The concentration ranges selected for each drug and investigational agent were based upon clinically achievable concentrations if the clinical Cmax of the agent was known.
Compounds. The drugs and investigational agents: pidnarulex (CX-5461; NSC782164), APTO-253 (NSC789042), BRACO-19 (NSC847499), peposertib (NSC802822), ceralasertib (NSC780249), elimusertib (NSC800525), camonsertib (NSC841442), AZD-1390 (NSC803789), olaparib (NSC753686), talazoparib (NSC767125), ART-558 (NSC835418), sotorasib (NSC818433), MRTX-1133 (NSC836407), SN-38 (NSC673596), topotecan (NSC609699), etoposide (NSC141540), doxorubicin (NSC123127), gemcitabine (NSC613327), 5-fluorouracil (NSC19893), paclitaxel (NSC125973), vemurafenib (NSC761431), panobinostat (NSC761190), R-306465 (JNJ-16241199; NSC773264), adavosertib (NSC754352), TP-3654 (NSC805149), carboplatin (NSC241240), KSQ-4279 (NSC840948), and staurosporine (NSC755774) were obtained from the National Cancer Institute (NCI) Developmental Therapeutics Program Chemical Repository (34). The FDA-approved anticancer drug set is available from the NCI Developmental Therapeutics Program. […] The stock solutions were prepared in dimethyl sulfoxide (DMSO, Sigma-Aldrich, St. Louis, MO, cat. D2650) at 800-fold the tested concentration and stored at -70 degrees C prior to their use. All drugs and investigational agents were tested over a range starting from a high concentration at or near the clinical Cmax and decreasing in half-log increments. If the clinical Cmax for an agent had not been determined, the highest concentration tested was 10 microM.
2.3 Cell Culture. All cells were maintained in an incubator at 37 degrees C and 5% CO2 with 95% humidity. The PDC lines were cultured according to standard operating procedures established by the NCI PDMR. All PDCs were thawed and cultured in Matrigel-coated flasks prepared with a working solution of 1X Ham's F-12 nutrient mix, without supplementation (Invitrogen, cat. 11765054), 100 U/mL penicillin-streptomycin (Invitrogen, cat. 15140122), and 2.5% Matrigel (Corning Inc., cat. 354248) for the first three passages. The 857933-349-R-J2-PDC line was cultured in 6C/Colon 1B media, which includes advanced DMEM/F-12 (Thermo Fisher Scientific, cat. 12634028), 10 mM HEPES (Thermo Fisher Scientific, cat. 15630080), 1X GlutaMAX supplement (Thermo Fisher Scientific, cat. 35050061), 0.1 mg/mL primocin (InvivoGen, cat. ant-pm-2), 10% defined fetal bovine serum, heat inactivated (HyClone Laboratories Inc., cat. SH30070.03HI), 50% L-WRN conditioned media (ATCC, cat. CRL-3276), 1.25 mM N-Acetyl-L-cysteine (Sigma-Aldrich, cat. A9165), 10 mM nicotinamide (Sigma-Aldrich, cat. N0636), 1X B-27 supplement (Thermo Fisher Scientific, cat. 17504044), 1X N-2 supplement (Thermo Fisher Scientific, cat. 17502048), 10 microM Y-27632 dihydrochloride (Tocris Bioscience, cat. 1254), and 50 ng/mL human EGF recombinant protein (Thermo Fisher Scientific, cat. PHG0311). The 485176-168-R4-J1-PDC line was cultured in Panc media, which includes all 6C/Colon 1B media components plus 100 ng/mL human FGF-10 (Thermo Fisher Scientific, cat. 100-26), 500 nM SB-431542 (Selleckchem, cat. S1067), and gastrin (Tocris, cat. 3006).
[…]
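Also: spheroids exposed to compounds for 7 days.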
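For viability, T/C in this document: 100% = DMSO vehicle control viability.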

SMILES: COc1cc(C2c3cc4c(cc3C(OC3OC5COC(C)OC5C(O)C3O)C3COC(=O)C23)OCO4)cc(OC)c1O (stereo not given) + CN(C)c1ccc(Nc2c3ccc(NC(=O)CCN4CCCC4)cc3nc3cc(NC(=O)CCN4CCCC4)ccc23)cc1
IC50 (curve of first compound, second compound 0.0316 µM): 4590 nM | IC50 (curve of first compound, second compound 0.1 µM): 3500 nM | IC50 (curve of first compound, second compound 0.316 µM): 2630 nM | IC50 (curve of first compound, second compound 1 µM): < 31.6 nM | IC50 (curve of first compound, second compound 3.16 µM): < 31.6 nM | IC50 (curve of first compound, second compound 10 µM): < 31.6 nM | viability, T/C (second compound 0.0316 µM, first compound 0.0316 µM): 114% | viability, T/C (second compound 0.0316 µM, first compound 0.1 µM): 103% | viability, T/C (second compound 0.0316 µM, first compound 0.316 µM): 94.9% | viability, T/C (second compound 0.0316 µM, first compound 1 µM): 79% | viability, T/C (second compound 0.0316 µM, first compound 3.16 µM): 51.7% | viability, T/C (second compound 0.0316 µM, first compound 10 µM): 41.2% | viability, T/C (second compound 0.1 µM, first compound 0.0316 µM): 106% | viability, T/C (second compound 0.1 µM, first compound 0.1 µM): 108% | viability, T/C (second compound 0.1 µM, first compound 0.316 µM): 88.9% | viability, T/C (second compound 0.1 µM, first compound 1 µM): 76% | viability, T/C (second compound 0.1 µM, first compound 3.16 µM): 49.8% | viability, T/C (second compound 0.1 µM, first compound 10 µM): 37.9% | viability, T/C (second compound 0.316 µM, first compound 0.0316 µM): 86.4% | viability, T/C (second compound 0.316 µM, first compound 0.1 µM): 87.5% | viability, T/C (second compound 0.316 µM, first compound 0.316 µM): 69.2% | viability, T/C (second compound 0.316 µM, first compound 1 µM): 56.5% | viability, T/C (second compound 0.316 µM, first compound 3.16 µM): 54.4% | viability, T/C (second compound 0.316 µM, first compound 10 µM): 30.3% | viability, T/C (second compound 1 µM, first compound 0.0316 µM): 25.3% | viability, T/C (second compound 1 µM, first compound 0.1 µM): 15.9% | viability, T/C (second compound 1 µM, first compound 0.316 µM): 17.2% | viability, T/C (second compound 1 µM, first compound 1 µM): 11.2% | viability, T/C (second compound 1 µM, first compound 3.16 µM): 10.6% | viability, T/C (second compound 1 µM, first compound 10 µM): 13.6% | viability, T/C (second compound 3.16 µM, first compound 0.0316 µM): 1.86% | viability, T/C (second compound 3.16 µM, first compound 0.1 µM): 2.35% | viability, T/C (second compound 3.16 µM, first compound 0.316 µM): 2.46% | viability, T/C (second compound 3.16 µM, first compound 1 µM): 1.99% | viability, T/C (second compound 3.16 µM, first compound 3.16 µM): 2.23% | viability, T/C (second compound 3.16 µM, first compound 10 µM): 1.76% | viability, T/C (second compound 10 µM, first compound 0.0316 µM): 0.27% | viability, T/C (second compound 10 µM, first compound 0.1 µM): 0.23% | viability, T/C (second compound 10 µM, first compound 0.316 µM): 0.79% | viability, T/C (second compound 10 µM, first compound 1 µM): 0.49% | viability, T/C (second compound 10 µM, first compound 3.16 µM): 0.45% | viability, T/C (second compound 10 µM, first compound 10 µM): 0.34%

SMILES: CC(C)n1c(=O)n(C)c2cnc3cc(F)c(-c4ccc(OCCCN5CCCCC5)nc4)cc3c21
viability, T/C (compound 0.0316 µM): 93.2% and 98.1% and 85.8% | viability, T/C (compound 0.1 µM): 95.7% and 88.2% and 81.6% | viability, T/C (compound 0.316 µM): 96.2% and 94.4% and 102% | viability, T/C (compound 1 µM): 74.8% and 82.3% and 78.2% | viability, T/C (compound 3.16 µM): 55.2% and 38.8% and 51.6% | viability, T/C (compound 10 µM): 20.5% and 11.7% and 18.7% | IC50 (curve of compound): 3590 nM and 2350 nM and 3270 nM

SMILES: CC1COCCN1c1cc(C2(O)CC3CCC(C2)O3)c2cnn(-c3ccn[nH]3)c2n1 (stereo not given)
viability, T/C (compound 0.0316 µM): 52.1% and 55.1% and 56% | viability, T/C (compound 0.1 µM): 21.3% and 20.7% and 15.9% | viability, T/C (compound 0.316 µM): 9.11% and 9.51% and 6.18% | viability, T/C (compound 1 µM): 6.21% and 5.84% and 2.3% | viability, T/C (compound 3.16 µM): 4.07% and 4.22% and 1.52% | viability, T/C (compound 10 µM): 3.07% and 3.7% and 0.82% | IC50 (curve of compound): 33.8 nM and 37.4 nM and 37.3 nM

Second part, led by results:

IC50 (curve of compound): 57.4 nM and 61 nM and 62 nM
SMILES: CC1COCCN1c1cc(-c2ccnn2C)c2ccnc(-c3ccn[nH]3)c2n1 (stereo not given)
viability, T/C (compound 0.0316 µM): 65.6% and 74.5% and 75.8% | viability, T/C (compound 0.1 µM): 35.5% and 31.4% and 31.2% | viability, T/C (compound 0.316 µM): 15.8% and 12.9% and 15.2% | viability, T/C (compound 1 µM): 8.71% and 4.99% and 7.86% | viability, T/C (compound 3.16 µM): 5% and 2.03% | viability, T/C (compound 10 µM): 4.63% and 1.67% and 5.37%

IC50 (curve of compound): < 31.6 nM
SMILES: Nc1ccn(C2OC(CO)C(O)C2(F)F)c(=O)n1 (stereo not given)
viability, T/C (compound 0.0316 µM): 24% and 35.9% and 25.5% | viability, T/C (compound 0.1 µM): 30.8% and 38.8% and 28.2% | viability, T/C (compound 0.316 µM): 39.4% and 47.6% and 37.4% | viability, T/C (compound 1 µM): 37.8% and 48.4% and 37.6% | viability, T/C (compound 3.16 µM): 35.4% and 45.9% and 35.1% | viability, T/C (compound 10 µM): 31.4% (2×) and 44%
